Measured values: US8017168B2, “High-potency sweetener composition with rubisco protein, rubiscolin, rubiscolin derivatives, ace inhibitory peptides, and combinations thereof, and compositions sweetened therewith” (The Coca-Cola Company, priority 2006, dated 2011)
Ends that are not written are not given here.

Columns and labels:
[1] = Sensory evaluation of sweetness linger by expert panel, Example Set G (citric acid/potassium citrate lemon-lime base); assay type: in vivo; parameters: key: 0: no sweetness linger; 1: very slight sweetness linger; 2: slight sweetness linger; 3: moderate sweetness linger; 4: moderately high sweetness linger; 5: high sweetness linger; conditions: scale 0-5; for sweetness linger rating of control samples: 400 ppm REBA in citric acid/potassium citrate composition, 8 g sugar in 100 ml citrate buffer; for Sweetness Linger rating (defined anchors of the protocol): sucrose, 500 ppm REBA control sample
Protocol: Sensory evaluation of the samples prepared in Example Set G was carried out under the following protocol, similar to that described hereinabove. In this test protocol, none of the samples were swallowed. All samples were expectorated and the mouth was rinsed with water after the tasting. Immediately upon sensing maximal sweetness, the sample was expectorated, the mouth was rinsed with water and the rate of sweetness decay (“Sweetness Linger”) was measured, where attention was focused on the sweetness 3-4 min after the water rinse. After sample tasting was complete, a salty oyster cracker was chewed followed by a water rinse, and at least 5 minutes followed before tasting the next sample. The sweetness linger was rated by a panel of experts in the sensory evaluation of foods and beverages using the following scale: 0=no sweetness linger, 1=very slight sweetness linger, 2=slight sweetness linger, 3=moderate sweetness linger, 4=moderately high sweetness linger, 5=high sweetness linger.
The “Sweetness Linger” rating for sucrose observed by this protocol is defined as 0. The Sweetness Linger of a 500 ppm of REBA control sample is defined as 5. Experimental samples were tasted by the same protocol, always allowing sufficient time between samples to ensure re-equilibration of the sensory system. Re-tasting of control samples during the course of the experiment was allowed and encouraged.
The comparison taste test was performed between two controls and addition of sweet taste improving additive on the onset and/or sweetness linger.
The effects of formulation change on the sweetness linger of 400 ppm REBA (equivalent to 8 g sucrose) in a citric acid/potassium citrate composition equivalent to that in a diet lemon-lime beverage were evaluated. The sweetness linger rating of this solution was determined to be 5.
8 g of sugar was dissolved in 100 ml of citrate buffer. The sweetness linger rating of this control sample was determined to be 0.

[2] = Sensory evaluation of sweetness linger by expert panel, Example Set H (phosphoric acid solution pH 2.4-2.5); assay type: in vivo; parameters: key: 0: no sweetness linger; 1: very slight sweetness linger; 2: slight sweetness linger; 3: moderate sweetness linger; 4: moderately high sweetness linger; 5: high sweetness linger; conditions: scale 0-5; 500 ppm REBA or 10 g sugar in 100 ml, carbon-treated water, phosphoric acid pH 2.4-2.5
mice = conditions: oral administration, 100 mg per kg; cited from earlier work
[3] = Rate of dissolution of rebaudioside A polymorph and amorphous forms in H2O at 25° C.; assay type: physicochemical
[4] = assay type: physicochemical
Protocol: A solution of rebaudioside A (>97% pure by HPLC) was prepared in double distilled water (12.5 gm in 50 mL, 25% concentration) by stirring the mixture at 40° C. for 5 minutes. An amorphous form of rebaudioside A was formed by immediately using the clear solution for spray drying with the Lab-Plant spray drier SD-04 instrument (Lab-Plant Ltd., West Yorkshire, U.K.). The solution was fed through the feed pump into the nozzle atomizer which atomized it into a spray of droplets with the help of a constant flow of nitrogen/air. […] This dry powder (11-12 g, H2O 6.74%) was discharged continuously from the drying chamber and was collected in a bottle.

Row | Compound | Rate of dissolution in H2O at 25° C. ([3]; H2O, 25° C.) | Rate of dissolution in H2O at 25° C. ([3]; grade in words) | also measured
1 | OC[C@H]1O[C@@](CO)(O[C@H]2O[C@H](CO)[C@@H](O)[C@H](O)[C@H]2O)[C@@H](O)[C@@H]1O [sucrose] | – | – | sweetness linger rating of control samples [1]: 0; Sweetness Linger rating (defined anchors of the protocol) [1]: 0; sweetness linger rating of control samples [2]: 0
2 | YPLDLF [rubiscolin-6] | – | – | memory consolidation (mice): enhanced memory consolidation
3 | rebaudioside A | – | – | sweetness linger rating of control samples [1]: 5; Sweetness Linger rating (defined anchors of the protocol) [1]: 5; sweetness linger rating of control samples [2]: 5
4 | rebaudioside A [Form 1] | (<0.2%/60 %/60 minutes | Very low | –
5 | rebaudioside A [Form 2] | (<30%/5 %/5 minutes | Intermediate | –
6 | rebaudioside A [Form 3] | (>30%/5 %/5 minutes | High | –
7 | rebaudioside A [Form 4] | (>35.0%/5 %/5 minutes | High | solubility in water at room temperature [4]: > 35.0%
